In test [1] the target is T1, AM1 receptor (CLR-RAMP2) in HUVECs (Homo sapiens, UniProt O60895+Q16602).
T1 construct: HUVECs specifically express the AM1 receptor alone; host or cells: primary HUVECs
As to the kind of experiment: total nitric oxide production in HUVECs. In kind it is cell-based. Particulars: HUVEC. The protocol: Data are analysed using a three-parameter non-linear regression curve or the operational model of receptor agonism. g–h Signalling bias plots were calculated as ∆Log(τ/KA) (g) or ∆∆Log(τ/KA) (h) for each agonist and for each signalling pathway. […] Solid arrows indicate known pathways. Dashed arrows represent possible pathways.
Endothelial cells and HCMs were cultured as above. 24 h prior to assay cells were plated on Costar 96-well black clear bottom plates at 40,000 cells/well. The assay was performed according to the manufacturer’s protocol. Briefly, cells pre-incubated with NO dye and assay buffer 1 (Fluorometric Nitric Oxide Assay Kit, Abcam, UK) for 30 min at 37 °C in 5% CO2. Any inhibitors requiring 30 min pre-treatment (YM/L-NAME/DMSO control) were added at this point. Ligand stimulation occurred immediately after this for 15 min at 37 °C in 5% CO2. Stain and ligand solution was removed, assay buffer II was added, and wells were read immediately. The absorbance was measured using a Tecan T200 (Thermo Fisher Scientific UK) reader with an excitation/emission of 540/590 nm. Endothelial cell responses were normalised to 10 μM acetylcholine. HCM responses were normalised to 10 μM isoproterenol[63],[64].
(§1) All sample sizes were determined, and data analysed, in accordance with the guidelines described by Curtis M et al.[65]. All experiments were appropriately controlled using ‘system pathway’ agonists. If any of these pathway controls generated inappropriate responses, then the entire data set was removed from analysis. […] Data analysis for cAMP accumulation, Ca^2+i mobilisation, NO accumulation, pERK1/2 activation, and cell proliferation assays were performed in GraphPad Prism 8.4 (GraphPad Software, San Diego). Data were fitted to obtain concentration–response curves using either the three-parameter logistic equation using to obtain values of Emax and pEC50 or the operational model of agonism. Statistical differences were analysed using one-way ANOVA followed by Dunnett’s post-hoc (for comparisons amongst more than two groups) or unpaired Student’s t test with Welch’s correction (for comparison between two groups). To account for the day-to-day variation experienced from the cultured cells, we used the maximal level of cAMP accumulation from cells in response to 100 μM forskolin stimulation was used as a reference, 10 μM ionomycin for Ca^2+i assays, 10 μM phorbol 12-myristate 13-acetate (PMA) for pERK1/2 activation, 10 μM acetylcholine for NO production and 10 μM VEGF for cell proliferation. […] Where appropriate the operational model for receptor agonism[27] was used to obtain efficacy (τ) and equilibrium disassociation constant (KA) values. In both cases, this normalisation removes the variation due to differences in days but retains the variance for control values. The means of individual experiments were combined to generate the curves shown. Having obtained values for τ and KA these were then used to quantify signalling bias as the change in Log(τ/KA)[19],[28]. Error for this composite measure was propagated by applying Eq. 1.1 PooledSEM=(SEMA)^2+(SEMB)^2 Where, SEMA and SEMB are the standard error of measurement A and B.

Test [2] has as its target T2, AM1 receptor (CLR-RAMP2) in HUAECs (Homo sapiens, UniProt O60895+Q16602).
T2 construct: host or cells: primary HUAECs
As to the kind of experiment: cAMP accumulation in HUAECs. In kind it is cell-based. The protocol:
All primary cell lines were cultured as above. On the day of the experiment media was removed and cells washed with PBS, before being dissociated with Trypsin-EDTA 0.05% (Gibco, UK) and then resuspended in PBS/BSA (0.1%) (Sigma, UK). Cells were immediately plated for use in cAMP assay as per the manufacturer’s instructions, reagents used were provided by the LANCE® cAMP detection assay kit (PerkinElmer, Boston, MA, USA), in 384 well optiplates (PerkinElmer (Boston, MA, USA)) at 2000 cells/well in 5 μl aliquots. […] Cells were incubated with compound for 30 min prior to adding detection buffer[28],[60]. Plates were incubated for a further 60 min (room temperature) and then read on a plate reader (Mithras LB 940 microplate reader (Berthold technologies, Germany)). All responses were normalised to 100μM forskolin (Tocris, UK). Antagonist studies were performed in the same way through co-stimulation of the relevant concentration. Alongside control-treated cell. Experiments with PTX (Sigma, UK) required pretreatment (16 h) prior to assays.
as §1, with “The means of individual experiments were combined to generate the curves shown.” left out, “Error for this composite measure was propagated by applying Eq. 1.1 PooledSEM=(SEMA)^2+(SEMB)^2 Where, SEMA and SEMB are the standard error of measurement A and B.” left out

In another test the test system is heart. Particulars: cited from earlier work.
The mark [3] stands for this setting: NO, operational model, mean ± SEM.
The mark [4] stands for this setting: cAMP, HUAEC, operational model, mean ± SEM.

Molecules are shown by their SMILES.

T1 sequence (Q16602 23-461): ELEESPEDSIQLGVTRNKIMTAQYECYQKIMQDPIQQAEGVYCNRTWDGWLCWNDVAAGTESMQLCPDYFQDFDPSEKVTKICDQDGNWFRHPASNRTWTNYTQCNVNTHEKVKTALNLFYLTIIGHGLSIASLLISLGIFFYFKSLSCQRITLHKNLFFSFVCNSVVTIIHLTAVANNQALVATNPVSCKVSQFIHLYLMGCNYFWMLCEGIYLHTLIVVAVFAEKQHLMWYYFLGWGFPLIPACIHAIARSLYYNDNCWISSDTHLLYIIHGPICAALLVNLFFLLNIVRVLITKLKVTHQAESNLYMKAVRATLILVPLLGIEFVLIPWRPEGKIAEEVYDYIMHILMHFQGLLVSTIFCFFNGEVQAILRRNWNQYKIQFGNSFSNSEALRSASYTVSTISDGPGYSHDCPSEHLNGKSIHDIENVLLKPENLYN
T1 sequence (O60895 43-175): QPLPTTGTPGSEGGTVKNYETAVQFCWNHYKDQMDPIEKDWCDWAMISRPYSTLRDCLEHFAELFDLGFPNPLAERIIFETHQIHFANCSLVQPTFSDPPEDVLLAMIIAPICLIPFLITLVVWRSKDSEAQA
T2 sequence (Q16602 23-461): as the sequence (Q16602 23-461) above
T2 sequence (O60895 43-175): as the sequence (O60895 43-175) above

In the case of `CSCC[C@H](NC(=O)[C@H](CC(C)C)NC(=O)[C@H](CCC(N)=O)NC(=O)[C@H](Cc1c[nH]c2ccccc12)NC(=O)[C@H](CC(C)C)NC(=O)[C@H](CCCNC(=N)N)NC(=O)[C@H](Cc1c[nH]cn1)NC(=O)[C@H](CO)NC(=O)[C@H](CC(C)C)NC(=O)[C@H](CC(N)=O)NC(=O)[C@H](CCC(N)=O)NC(=O)[C@@H](NC(=O)[C@H](CCC(N)=O)NC(=O)[C@@H]1CSSC[C@H](NC(=O)CNC(=O)[C@@H](NC(=O)[C@H](CCCNC(=N)N)NC(=O)[C@H](CC(C)C)NC(=O)[C@H](CC(C)C)NC(=O)[C@H](CCC(N)=O)NC(=O)[C@H](C)NC(=O)[C@H](CCC(N)=O)NC(=O)[C@@H](N)[C@@H](C)O)C(C)C)C(=O)N[C@@H](C(C)C)C(=O)N[C@@H](CC(C)C)C(=O)NCC(=O)N[C@@H]([C@@H](C)O)C(=O)N1)C(C)C)C(=O)NCC(=O)N1CCC[C@H]1C(=O)N[C@@H](C)C(=O)NCC(=O)N[C@@H](CCCNC(=N)N)C(=O)N[C@@H](CCC(N)=O)C(=O)N[C@@H](CC(=O)O)C(=O)N[C@@H](CO)C(=O)N[C@@H](C)C(=O)N1CCC[C@H]1C(=O)N[C@H](C(=O)N[C@@H](CC(=O)O)C(=O)N1CCC[C@H]1C(=O)N[C@@H](CO)C(=O)N[C@@H](CO)C(=O)N1CCC[C@H]1C(=O)N[C@@H](Cc1c[nH]cn1)C(=O)N[C@@H](CO)C(=O)N[C@@H](Cc1ccc(O)cc1)C(N)=O)C(C)C` [AM2, adrenomedullin 2], the results for the Emax in test [1] and in test [2] were 82.1 ± 4.62% and 17.5 ± 1.21%, respectively. Besides, the “order of potencies for NO synthesis” value in test [1] is given as “order of potencies AM2 > AM > CGRP”. In addition, the “Transducer coefficient Log(τ/KA)” value was 6.80±0.17 in test [1] (NO, calculated from Table S1) and 6.03±0.22 in test [2] (cAMP, HUAEC, calculated from Table S1). Further, the logτ in test [1] (setting [3]) was 0.65±0.09; in test [2] (setting [4]), -0.75±0.05. For the same molecule, the values for the pKA in test [1] (setting [3]) and in test [2] (setting [4]) were 6.15±0.15 and 6.78±0.21, respectively. In addition, the “effect of protein kinase inhibitors on contraction effect” value in the test on heart was “blocked by both inhibitors of both protein kinase A and C”.

The values above are taken from article PMC8222276 (Communications Biology, 2021).
